Measurements taken from PMC8953385, “2-Styrylchromones: Cytotoxicity and Modulation of Human Neutrophils’ Oxidative Burst” (Pharmaceuticals, 2022).
One block for each compound: values may come before it.

How the values were obtained:
[1] = Annexin V/PI flow cytometric assay of neutrophils’ viability; format: cell-based, human; conditions: human, isolated human neutrophils, pH 7.4, representative plot, Figure 4, read-out: Viable cells [annexin V (−)/PI (−)], lower left quadrant
Description: (§1) Following the Declaration of Helsinki and the approval of patient-related procedures and protocols by the Ethics Committee of Centro Hospitalar do Porto, Portugal, venous blood was collected from healthy human blood donors, after informed consent. The blood was stored into K3EDTA vacuum tubes after antecubital venipuncture of the donors. In order to obtain the isolated neutrophils, the density gradient centrifugation method was applied, as previously reported, with modifications. In brief, in a 15 mL polypropylene tube, 3 mL of histopaque 1119 were added followed by 3 mL of histopaque 1077 and finally, 4.5 mL of the collected blood were slowly added. Each tube was centrifuged at 900× g at 20 °C for 30 min, with a medium acceleration and deceleration speed. Following centrifugation, the neutrophils’ portion was harvested, and PBS was added to double the volume. The neutrophils’ suspension was then centrifuged at 850× g at 4 °C for 5 min, using a maximum acceleration and deceleration speed. The supernatant was discarded, and the neutrophils’ pellet was resuspended in PBS and afterward milli-Q water was added to lyse the residual erythrocytes. The tube was gently homogenized and after a few minutes, 3% NaCl was added to restore isotony, and then centrifuged again at 850× g at 4 °C for 5 min, using a maximum acceleration and deceleration speed. The supernatant was discarded, and a neutrophils’ pellet was obtained. After isolation, the neutrophils’ pellet was resuspended in the incubation media, tris-glucose buffer (25 mM Trizma® base, 5.5 mM D-glucose, 140 mM NaCl, 1.26 mM CaCl2, 0.81 mM MgSO4, 5.37 mM KCl, pH = 7.4). Neutrophils’ suspension was kept on ice, under soft shaking, until use. The trypan blue exclusion method was used to determine cells’ yield and viability.
(§2) The effect of the studied 2-SC on neutrophils’ viability was assessed by flow cytometry, after simultaneous staining with FITC Annexin V and propidium iodide (PI) (Figure S1), as previously reported by our research group, with modifications. After isolation, neutrophils (1 × 10^6 cells/mL) were incubated with 2-SC (up to 100.00 μM) or DMSO for 40 min, at 37 °C, in a 48-well plate. At the end of incubation, the content of each well was transferred to conical microtubes and centrifuged at 400× g at 20 °C for 5 min. After discarding the supernatant, the neutrophils’ pellet was resuspended in PBS and centrifuged under the previous conditions. Once the supernatant was removed, the pellet was resuspended in 10× diluted binding buffer, and then PI and annexin V were added. This mixture was incubated in the dark at room temperature for 15 min, and finally, 10× diluted binding buffer was added. In a flow cytometer, the fluorescence signal, of at least 10,000 cells/sample, were collected in logarithmic mode and followed in channels 1 and 3. The green fluorescence corresponding to annexin V FITC was accompanied in channel 1 and plotted as a histogram of FL1 staining, whereas the fluorescence corresponding to PI was monitored in channel 3 and plotted in the same histogram but as FL3 staining. The collected data were analyzed with the BD Accuri™ C6 software. The data analysis was restricted to the neutrophils’ population. Thus, according to the light-scattering properties of neutrophils (in a forward versus side scatter plot), a polygon gate was drawn, where debris and other blood cells were excluded. The effect of 2-SC on neutrophils’ viability was expressed as a relative percentage of apoptotic and/or necrotic cells when compared to the control (without 2-SC).

[2] = tested on: human neutrophils; assay: as above; format: cell-based; conditions: for Higher 2-SC concentration that did not affect human neutrophils’ viability: annexin V/PI assay, 40 min incubation at 37 °C
Description: as §1, §2

[3] = tested on: human neutrophils’ oxidative burst; assay: Neutrophils’ oxidative burst, PMA stimulation, luminol chemiluminescence; format: cell-based; conditions: Homo sapiens, Neutrophil
Description: as §1
The effect of 2-SC on the modulation of neutrophils’ oxidative burst was assessed after the stimulation of these cells with PMA by monitoring the oxidation of chemiluminescent probe, luminol, by the generated reactive species (Figure S2), according to a previously described methodology. Briefly, neutrophils (1 × 10^6 cells/mL) were pre-incubated with luminol (500.00 μM), and 2-SC (0.00–100.00 μM) or DMSO, at the final concentrations indicated. After this pre-incubation, at 37 °C for 5 min, PMA (160.00 nM) was added, and in turn, neutrophils’ stimulation was initiated. Kinetic readings were immediately initiated and followed for 40 min, at 37 °C, in a microplate reader. The arbitrary chemiluminescence value was taken at the peak of the curve, and the results were expressed as the inhibition percentage of luminol oxidation.
GraphPad Prism 6 software was used to plot the curves of percentage of inhibition versus concentrations of compound, from which the concentration that produces 50% of inhibition (IC50) was determined. GraphPad Prism 6 software was also used to perform all statistical analyses. […] In all cases, p-values < 0.05 were considered statistically significant. The results are expressed as mean ± standard error of the mean (SEM).

[4] = O2•−, cited from earlier work

SMILES: O=c1cc(/C=C/c2ccccc2)oc2cc(O)cc(O)c12 [A4]
viability at 40 min, 25 µM ([1]; 25.00 μM): 88.4% | viability at 40 min, 50 µM ([1]; 50.00 μM): 63.8% | Effect on total neutrophils’ population percentage ([2]; 50.00 μM): significantly affected the total neutrophils’ population percentage | Induction of late apoptosis ([2]; 50.00 μM): induced late apoptosis | Higher 2-SC concentration that did not affect human neutrophils’ viability [2]: 25.00 µM | inhibition at 25 µM ([3]; 25.00 µM (highest tested concentration), read-out: Inhibitory activity (% ± SEM), neutrophils’ oxidative burst): < 30%

SMILES: O=c1cc(/C=C/c2ccc(O)cc2)oc2cccc(O)c12 [B2]
Higher 2-SC concentration that did not affect human neutrophils’ viability [2]: 6.25 µM | Scavenging of reactive species ([4]; H2O2, HOCl, 1O2, •NO, ONOO−): much less active or inactive

IC50 ([3]; PMA 160.00 nM, luminol 500.00 μM, mean ± SEM, read-out: IC50, inhibition of human neutrophils’ oxidative burst): 1.4 ± 0.2 µM
SMILES: COc1ccc(/C=C/c2cc(=O)c3ccc(O)c(O)c3o2)cc1OC [C8]
Higher 2-SC concentration that did not affect human neutrophils’ viability [2]: 6.25 µM | Scavenging activity of reactive species ([4]; 1O2, •NO and ONOO−): good scavenging activity
